Source: US20240352040A1, “CRYSTAL FORM OF RIPK1 INHIBITOR, ACID SALT THEREOF, AND CRYSTAL FORM OF ACID SALT THEREOF” (GENFLEET THERAPEUTICS (SHANGHAI) INC., priority 2021, published 2024)
≈ marks a conversion by molar mass, not a printed value. Counter-ions that a name gives are not always drawn. Like-named read-outs stand apart in the source and are kept apart here. Each block holds one molecule with its values, some of them ahead of it.

Legend:
[1] = Rough solubility in different solvent systems at room temperature; assay type: physicochemical
Protocol: The rough solubility of the free base anhydrous crystal form A of the compound of formula I obtained in Example 1 and the monohydrate crystal form C of the sulfate salt of the compound of formula I obtained in Example 4 was tested in different solvent systems at room temperature. About 2 mg of the solid sample was weighed into an HPLC vial, and then the corresponding solvent was gradually (50/50/200/700 μL in sequence) added thereto and shaken until the solid dissolved to clear. If the sample was still not dissolved to clear after the addition of 1 mL of solvent, no more solvent would be added. The rough solubility ranges calculated from the mass of the solid sample, the volume of the added solvent, and the observed dissolution phenomena are shown in Table 25-1 and Table 25-2.

[2] = as above; assay type: physicochemical; details: 50 °C, organic solvent or mixture, thermodynamic from solid, *Dissolve to clear at 50° C.
[3] = biological target: T1, RIPK1 (Homo sapiens, UniProt Q13546); experiment: Inhibitory activity against RIPK1 enzyme, P33-ATP / MBP substrate radiometric assay; assay type: biochemical; details: 36 nM RIPK1, 0.33 mg/mL MBP, 155 μM P33 ATP, 2 hours room temperature
T1 construct: purchased Eurofins 16-022
T1 sequence (Q13546 1-671): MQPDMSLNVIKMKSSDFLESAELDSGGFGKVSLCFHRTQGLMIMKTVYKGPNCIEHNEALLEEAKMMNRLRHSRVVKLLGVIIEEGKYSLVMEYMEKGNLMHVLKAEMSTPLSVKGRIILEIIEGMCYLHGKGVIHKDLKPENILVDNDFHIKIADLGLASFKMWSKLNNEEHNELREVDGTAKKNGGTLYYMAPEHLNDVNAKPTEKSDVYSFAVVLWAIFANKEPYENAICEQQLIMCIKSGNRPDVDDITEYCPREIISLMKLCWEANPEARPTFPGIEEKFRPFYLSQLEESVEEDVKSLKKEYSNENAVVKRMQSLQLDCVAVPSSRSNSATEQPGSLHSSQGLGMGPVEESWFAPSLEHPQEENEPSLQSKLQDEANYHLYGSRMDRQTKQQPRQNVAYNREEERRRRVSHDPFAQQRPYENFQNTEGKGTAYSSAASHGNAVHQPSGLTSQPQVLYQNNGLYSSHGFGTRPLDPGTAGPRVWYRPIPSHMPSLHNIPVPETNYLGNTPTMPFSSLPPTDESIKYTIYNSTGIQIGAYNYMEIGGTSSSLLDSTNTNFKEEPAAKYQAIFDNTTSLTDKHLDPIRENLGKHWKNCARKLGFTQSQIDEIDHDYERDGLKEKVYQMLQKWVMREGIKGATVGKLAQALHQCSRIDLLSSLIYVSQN
Protocol: (§1) The U937 cell line used in the following test examples was derived from ATCC, No.: CRL-1593.2, batch No.: 63479999, culture medium: RPMI-1640+10% FBS. The L929 cell line used in the following test examples was derived from ATCC, No.: CCL-1, batch No.: 70001022, culture medium: MEM+10% FBS+1% PS. […]
The test compound was dissolved in DMSO to prepare a 10 mM stock solution, and diluted 3.16-fold with DMSO to a series of gradient concentrations. […] The final reaction system was detected using a liquid scintillation counter after treatment. The result after detection was subtracted from the blank control and converted to the percentage of activity compared with the reading of the control group. […]

[4] = tested on: L929 cells; experiment: Inhibition of TNF-α-induced programmed necrosis of L929 cells, CellTiter-Glo; assay type: cell-based; details: 30 ng/mL mouse TNF-α + 15 μM Z-VAD, 6 hours, read-out: inhibitory IC50 against programmed necroptosis of cells induced by TNF-α
Protocol: as §1
The compound was dissolved in DMSO to prepare a 10 mM stock solution and diluted 3.16-fold with DMSO to a series of gradient concentrations. […] After sufficient lysis reaction, the chemiluminescence readings were recorded by a microplate reader. The survival rate was calculated from the detection results using the equation as follows: SR (%)=(RLU compound−RLU blank)/(RLU high control−RLU blank)×100%. […]

[5] = tested on: U937 cells; experiment: Inhibition of TNF-α-induced programmed cell necrosis (necroptosis) in U937 cells, CellTiter-Glo; assay type: cell-based; details: U-937, human TNF-α + Q-VD-Oph, 48 hours, read-out: inhibitory IC50 against programmed necroptosis of cells induced by TNF-α
Description: The U937 cell line used in the following test examples was derived from ATCC, No.: CRL-1593.2, batch No.: 63479999, culture medium: RPMI-1640+10% FBS. The L929 cell line used in the following test examples was derived from ATCC, No.: CCL-1, batch No.: 70001022, culture medium: MEM+10% FBS+1% PS. The reagents used, their suppliers, and item numbers are as follows: RPMI-1640, Gibco, 11875-093; FBS, Gibco, 10099-141; Trypsin-EDTA, Gibco, 25200-072; PS, Gibco, 15140-122; CellTiter Glo, Promega, G7573; DMSO, VWR AMRESCO, 0231-500ML; TNF-α protein (human, recombinant), Peprotech, 300-01A; Q-VD-Oph, MCE, HY-12305; V-bottom plate, Corning, 3894; 384-well low flange white flat bottom microplate, Corning, 3570; RIPK1, Eurofins, 16-022; MOPS, BDH, 441644J; EDTA, Sigma, E5134; myelin basic protein, Sigma, M1891-25.00 MG; magnesium acetate, Merck, DU008026; ATP (non-radioactive labelled), Sigma, A-7699; ATP (radioactive labelled), Hartmann Analytic, DU008054; phosphoric acid, Metlab, DU003000; Z-VAD: Shanghai Twochem, YA02401.
The test compound was dissolved in DMSO and diluted to a series of concentration gradients with DMSO. […] After sufficient lysis reaction, the chemiluminescence readings were recorded by a microplate reader. The survival rate was calculated from the detection results using the equation as follows: SR (%)=(RLU compound−RLU blank)/(RLU high control−RLU blank)×100%. […]

[6] = Suspension competition test between crystal forms of the sulfate salt (anhydrous/hydrate transformation relationship); assay type: physicochemical
Protocol: A suspension competition test between the anhydrous crystal form A of the sulfate salt obtained in Example 5 and the anhydrous crystal form D of the sulfate salt obtained in Example 19 was set up, including conditions of 5° C., 25° C., and 50° C. in methanol and 25° C. in ACN. (Test numbers are from A1 to A4)
A suspension competition test between the monohydrate crystal form C of the sulfate salt obtained in Example 4 and the anhydrous crystal form A of the sulfate salt obtained in Example 5 was set up at room temperature, including a suspension competition test in ACN/H2O (aw=0/0.2/0.4/0.6/0.8) of different water activities at room temperature. (Test numbers are from B1 to B5)
The specific steps are as follows: 1) saturated solutions of sulfate salt in different solvent systems at room temperature were prepared; 2) equal mass of the corresponding samples of crystal form of sulfate salt (about 5 mg each) were added to 1 mL of saturated solution to form a suspension, respectively; 3) the suspension was magnetically stirred at corresponding temperature; 4) the remaining solid was separated and tested by XRPD.

[7] = Hygroscopicity by dynamic vapor sorption (DVS) at 25° C.; assay type: physicochemical
Protocol: (3) Dynamic vapor sorption (DVS): Dynamic vapor sorption (DVS) curves were collected on DVS Intrinsic from SMS (surface measurement systems). The relative humidity at 25° C. was corrected using the deliquescence points of LiCl, Mg(NO3)2, and KCl.
The hygroscopicity of the sample of the monohydrate crystal form C of the sulfate salt obtained in […] was evaluated through the DVS test from 0% RH to […] at 25° C.

[8] = Solid state stability (XRPD crystal form, HPLC purity); assay type: physicochemical; details: for Purity / Purity/initial purity / Initial purity: HPLC; for Crystal form transition: XRPD; for Initial purity: before the stability test, monohydrate crystal form C of sulfate salt
Protocol: (6) High performance liquid chromatography (HPLC): Purity and solubility in the test were determined by Agilent 1260 high performance liquid chromatograph, and the analytical conditions are shown in Table 4.
Appropriate amounts of the samples of the monohydrate crystal form C of the sulfate salt […], and then placed for one week in an open state of 40° C./75% RH. Solid samples separated under different conditions were respectively subjected to XRPD test to evaluate the transition of crystal forms, and subjected to HPLC test to evaluate purity and chemical stability.

[9] = 40° C./75% RH/1 week, open, listed as Example 4
[10] = 40° C./75% RH/1 week, open, listed as Example 9
[11] = 60° C./sealed/1 week, listed as Example 4
[12] = 60° C./sealed/1 week, listed as Example 9
[13] = sealed 24 hours at 60° C., open one week at 40° C./75% RH, two batches

Compound: Nc1nc2cc(-c3cnc4c(c3)C(=O)N(Cc3cc(OC(F)(F)F)ccc3F)CC4)ccn2n1
- solubility ([1]; dimethyl sulfoxide, organic solvent or mixture, thermodynamic from solid, Dimethyl sulfoxide, read-out: Solubility): > 42000 µg/mL
- solubility ([2]; isopropanol): < 2400 µg/mL

Compound: Nc1nc2cc(-c3cnc4c(c3)C(=O)N(Cc3cc(OC(F)(F)F)ccc3F)CC4)ccn2n1 [compound of formula I, 3-(2-amino-[1,2,4]triazolo[1,5-a]pyridin-7-yl)-6-(2-fluoro-5-(trifluoromethoxy)benzyl)-7,8-dihydro-1,6-naphthyridin-5(6H)-one]
- IC50 [3]: 39 nM
- IC50 [4]: 3 nM
- IC50 [5]: 6 nM

Compound: Nc1nc2cc(-c3cnc4c(c3)C(=O)N(Cc3cc(OC(F)(F)F)ccc3F)CC4)ccn2n1 [free base anhydrous crystal form A, 3-(2-amino-[1,2,4]triazolo[1,5-a]pyridin-7-yl)-6-(2-fluoro-5-(trifluoromethoxy)benzyl)-7,8-dihydro-1,6-naphthyridin-5(6H)-one]
- solubility ([1]; Methanol): S < 1.8 mg/mL
- solubility ([1]; acetone, organic solvent or mixture, thermodynamic from solid, Acetone, read-out: Solubility): < 1800 µg/mL
- solubility ([1]; acetonitrile, organic solvent or mixture, thermodynamic from solid, Acetonitrile, read-out: Solubility): < 1900 µg/mL
- solubility ([1]; ethanol, organic solvent or mixture, thermodynamic from solid, Ethanol, read-out: Solubility): < 2200 µg/mL
- solubility ([1]; isopropanol, organic solvent or mixture, thermodynamic from solid, Isopropanol, read-out: Solubility): < 1900 µg/mL
- solubility ([1]; n-heptane, organic solvent or mixture, thermodynamic from solid, n-Heptane, read-out: Solubility): < 1700 µg/mL
- solubility ([1]; water, thermodynamic from solid, Water, read-out: Solubility): < 2100 µg/mL
- solubility ([2]; dimethyl sulfoxide): 7700 to 23000 µg/mL (≈ 16.3 to 48.7 mM)

Compound: Nc1nc2cc(-c3cnc4c(c3)C(=O)N(Cc3cc(OC(F)(F)F)ccc3F)CC4)ccn2n1 [monohydrate crystal form C of the sulfate salt]
- thermodynamic stability range under different water activities ([6]; room temperature): relatively wide
- solubility ([1]; Acetone): S < 2.4 mg/mL
- solubility ([1]; Acetonitrile): S < 2.4 mg/mL
- solubility ([1]; Water): S < 2.4 mg/mL
- solubility ([1]; n-Heptane): S < 2.3 mg/mL
- hygroscopicity assessment ([7]; DVS, 25° C.): slightly hygroscopic
- hygroscopic weight gain ([7]; DVS, 25° C./80% RH): about 0.2700
- crystal form transition after the DVS test (XRPD) ([7]; after DVS test): no crystal form transition
- Purity [8, 9]: 99.46%
- Purity/initial purity [8, 9]: 99.98%
- Purity [8, 10]: 99.45%
- Purity/initial purity [8, 10]: 99.93%
- Crystal form transition ([8]; 40° C./75% RH/1 week, open): No
- Purity [8, 11]: 99.47%
- Purity/initial purity [8, 11]: 99.99%
- Purity [8, 12]: 99.39%
- Purity/initial purity [8, 12]: 99.87%
- Crystal form transition ([8]; 60° C./sealed/1 week): No
- Initial purity ([8]; listed as Example 4): 99.48%
- Initial purity ([8]; listed as Example 9): 99.52%
- change in HPLC purity [8, 13]: do not show any significant decrease
- change of crystal form (XRPD) [8, 13]: does not change

- solid form obtained after stirring in water ([6]; water, water activity of about 1): free base crystal form A was obtained
Compound: O=S(=O)(O)O [sulfate]
